± gives the standard deviation of the averaged measurements.
Tests used:
HS-PSS [1] = assay: drug sensitivity score (DSS, CellTiter-Glo viability, 72 h) (DSS (dimensionless)); higher = more sensitive; extreme values may be limits of the assay
Outline: (§1)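 MPNST cell lines and primary human Schwann cells were seeded at 750–1000 cells per well into 384-well plates preprinted with each compound at five concentrations in 10-fold steps, then incubated 72 h at 37 °C, 5% CO2. CellTiter-Glo ATP luminescence gave viability, scaled between vehicle and positive-control wells, with duplicates averaged where present. Curves were fitted with a four-parameter logistic model. Percent inhibition refers to the top concentration, while drug sensitivity score and relative IC50, censored at the top concentration, come from these fits.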

HS-Sch-2 [2] = assay: as above
Outline: as §1

[3] = tested on: HSC1 (primary human Schwann cells); assay: as above
Outline: as §1

[4] = tested on: HSC2 (primary human Schwann cells); assay: as above
Outline: as §1

S1507-2 [5] = assay: as above
Outline: as §1

S462 [6] = assay: as above
Outline: as §1

ST8814 [7] = assay: as above
Outline: as §1

STS26T [8] = assay: as above
Outline: as §1

YST-1 [9] = assay: as above
Outline: as §1

HS-PSS [10] = assay: drug sensitivity score (DSS, CellTox-Green cytotoxicity, 72 h) (DSS (dimensionless)); higher = more cytotoxic; extreme values may be limits of the assay
Outline: (§2)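 For 72 h at 37 °C, MPNST cell lines and primary human Schwann cells were exposed in 384-well plates to five 10-fold compound dilutions. CellTox-Green, added before seeding at a final 1:1000 dilution, gave fluorescence from DNA released by disrupted cells. Signals were scaled to vehicle and positive-control wells, cultures failing plate quality control were left out, and four-parameter logistic fits were applied. Relative IC50 and drug sensitivity score were derived from the fits, with IC50 censored at the top concentration.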

[11] = tested on: HSC1 (primary human Schwann cells); assay: as above
Outline: as §2

[12] = tested on: HSC2 (primary human Schwann cells); assay: as above
Outline: as §2

S1507-2 [13] = assay: as above
Outline: as §2

ST8814 [14] = assay: as above
Outline: as §2

STS26T [15] = assay: as above
Outline: as §2

HS-PSS [16] = assay: % inhibition of CellTiter-Glo viability at highest tested concentration (72 h), relative to DMSO and benzethonium chloride controls; higher = more inhibition
Outline: as §1

HS-Sch-2 [17] = assay: as above
Outline: as §1

[18] = tested on: HSC1 (primary human Schwann cells); assay: as above
Outline: as §1

[19] = tested on: HSC2 (primary human Schwann cells); assay: as above
Outline: as §1

S1507-2 [20] = assay: as above
Outline: as §1

S462 [21] = assay: as above
Outline: as §1

ST8814 [22] = assay: as above
Outline: as §1

STS26T [23] = assay: as above
Outline: as §1

YST-1 [24] = assay: as above
Outline: as §1

Row | Structure (SMILES) | drug sensitivity score (HS-PSS [1]) | drug sensitivity score (HS-Sch-2 [2]) | drug sensitivity score [3] | drug sensitivity score [4] | drug sensitivity score (S1507-2 [5]) | drug sensitivity score (S462 [6]) | drug sensitivity score (ST8814 [7]) | drug sensitivity score (STS26T [8]) | drug sensitivity score (YST-1 [9]) | drug sensitivity score (HS-PSS [10]) | drug sensitivity score [11] | drug sensitivity score [12] | drug sensitivity score (S1507-2 [13]) | drug sensitivity score (ST8814 [14]) | drug sensitivity score (STS26T [15]) | % inhibition (HS-PSS [16]) | % inhibition (HS-Sch-2 [17]) | % inhibition [18] | % inhibition [19] | % inhibition (S1507-2 [20]) | % inhibition (S462 [21]) | % inhibition (ST8814 [22]) | % inhibition (STS26T [23]) | % inhibition (YST-1 [24])
1 | NC(=O)Nc1cc(-c2cccc(F)c2)sc1C(=O)N[C@H]1CCCNC1 [AZD7762] (max concentration tested 1000 nM) | 4.8 | 12.7 | 6.7 | 3.95 | 10.9 ± 0.13 | 14.7 ± 0.2 | 8.3 | 9.05 | 4.02 | 0.32 | 3.66 | 5.55 | 3.7 ± 0.91 | 5.42 | 9.01 | 61.9% | 90.7% | 72.8% | 70.2% | 80.47 ± 0.4% | 98.22 ± 0.35% | 86.2% | 90.7% | 71.9%
2 | CCC1=C[C@@H]2CN(C1)Cc1c([nH]c3ccccc13)[C@@](C(=O)OC)(c1cc3c(cc1OC)N(C)[C@H]1[C@@](O)(C(=O)OC)[C@H](OC(C)=O)[C@]4(CC)C=CCN5CC[C@]31[C@@H]54)C2 [Vinorelbine] (max concentration tested 10000 nM) | 24.6 | 40.6 | 16.7 | 20.8 | 19.1 ± 0.81 | 30.2 ± 0.41 | 20.6 | 31.9 | 40.2 | 2.69 | 12.5 | 13.5 | 19.2 ± 3.6 | 19.7 | 34.4 | 80.5% | 98.5% | 78.9% | 88.8% | 80.4 ± 4.8% | 99.19 ± 0.43% | 94.7% | 94.5% | 94.3%
3 | CNC(=O)c1cc(Oc2ccc(NC(=O)Nc3ccc(Cl)c(C(F)(F)F)c3)cc2)ccn1 [Sorafenib] (max concentration tested 1000 nM) | 0 | 0 | 0 | 0 | 0 | 0 | 0 | 0 | 0 | 0 | 0 | 0 | 0 | 0 | 0 | -0.19% | -11.4% | -5.93% | -21.1% | -6.35 ± 3.5% | -1.24 ± 2.1% | -4.54% | -3.72% | 11.4%
4 | Cc1cc(Nc2nc(N[C@@H](C)c3ncc(F)cn3)ncc2Cl)[nH]n1 [AZD1480] (max concentration tested 1000 nM) | 0.78 | 0 | 2.84 | 0.934 | 0.0872 ± 0.12 | 1.64 ± 0.2 | 0.0148 | 0.3 | 0.54 | 0 | 0 | 0.662 | 5.43 ± 7.7 | 0 | 0 | 20.3% | 2.41% | 37.6% | 17% | 11.6 ± 8% | 26.4 ± 3.4% | 10.4% | 18.1% | 20.3%
5 | Cn1c(CCCC(=O)O)nc2cc(N(CCCl)CCCl)ccc21 [Bendamustine] (max concentration tested 10000 nM) | 0 | 0 | 0 | 0 | 0 | 0 | 0 | 0 | 0.01 | 0 | 0 | 0 | 0 | 0 | 0 | 4.27% | 9.41% | 5.73% | 8.93% | -3.59 ± 5.5% | -6.58 ± 4% | -3.13% | 0.816% | 10.4%
6 | O=C(NC[C@H](O)CO)c1ccncc1Nc1ccc(I)cc1F [Pimasertib] (max concentration tested 10000 nM) | 2.94 | 5.83 | 7.67 | 7.43 | 11.9 ± 1.4 | 11.9 ± 0.82 | 10.8 | 6.72 | 1.29 | 0 | 0.153 | 0 | 5.35 ± 0.4 | 6.32 | 0.309 | 44.3% | 55.4% | 60.7% | 65% | 81.8 ± 2.4% | 83.69 ± 0.41% | 95.9% | 42% | 34.4%
7 | CO[C@H]1[C@@H](N(C)C(=O)c2ccccc2)C[C@@H]2O[C@@]1(C)n1c3ccccc3c3c4c(c5c6ccccc6n2c5c31)C(=O)NC4 [Midostaurin] (max concentration tested 10000 nM) | 9.08 | 12.2 | 21.6 | 20.7 | 16.5 ± 1.1 | 10.7 ± 0.49 | 13.9 | 11.5 | 11.4 | 0 | 11.9 | 19.4 | 6.96 ± 1.9 | 11.1 | 13.4 | 56.4% | 73.6% | 93.2% | 95.5% | 90.3 ± 1% | 71.9 ± 4.6% | 85.2% | 71.8% | 52.8%

Reference: the supplement of paper PMC5579334
